30 compounds from patent US10155765B2, “Carboxamide inhibitors of IRAK4 activity” (MERCK SHARP & DOHME CORP., priority 2015, dated 2018) can be followed below.

Where a name gives a salt, the structure may show the parent alone. A value given as a limit tells only on which side of the number the result lay.

For the experiment, the target named is IRAK4 (Homo sapiens (Human), UniProt Q9NWZ3). Nature of the experiment: IRAK4 Kinase Assay (IMAP fluorescence polarization). Particulars: GST tagged IRAK4, 100 μM ATP, 30 minutes at 25° C., IMAP FP. The format is biochemical. The text has this:
Other assays are known in the literature and could be readily performed by those of skill in the art.
The reaction is initiated by the addition of ATP.
For orientation: Fluorescence polarisation rises when a labelled molecule tumbles more slowly, as on binding a larger partner.

IRAK4, sequence (Q9NWZ3 whole entry): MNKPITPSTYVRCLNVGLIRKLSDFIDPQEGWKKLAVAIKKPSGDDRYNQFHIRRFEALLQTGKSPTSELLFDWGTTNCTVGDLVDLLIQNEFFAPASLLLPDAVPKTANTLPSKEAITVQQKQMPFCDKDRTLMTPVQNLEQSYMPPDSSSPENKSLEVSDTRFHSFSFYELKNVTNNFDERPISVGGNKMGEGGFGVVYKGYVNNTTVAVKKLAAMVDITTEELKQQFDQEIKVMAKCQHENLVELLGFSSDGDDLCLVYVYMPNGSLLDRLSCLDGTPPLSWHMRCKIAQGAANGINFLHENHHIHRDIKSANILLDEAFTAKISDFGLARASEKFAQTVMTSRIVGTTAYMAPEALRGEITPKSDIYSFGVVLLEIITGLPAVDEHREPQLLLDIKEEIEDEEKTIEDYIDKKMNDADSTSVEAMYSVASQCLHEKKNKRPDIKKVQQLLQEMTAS

For the compound `NCCNc1ncc2ccc(C(=O)Nc3cn(CCO)nc3C(N)=O)n2n1` [Example 59, 2-[(2-aminoethyl)amino]-N-[3-carbamoyl-1-(2-hydroxyethyl)-1H-pyrazol-4-yl]pyrrolo[2,1-f][1,2,4]triazine-7-carboxamide trifluoroacetate], 0.002 µM corresponded to half-maximal inhibition (IC50).

Take `NC(=O)c1nn(-c2cccnc2)cc1NC(=O)c1cnn2cccnc12` [Example 44, N-(3-carbamoyl-1-pyridin-3-yl-1H-pyrazol-4-yl)pyrazolo[1,5-a]pyrimidine-3-carboxamide]: the IC50 (in general, the concentration needed to halve the response being measured) is 0.059 µM.

On to `CC(C)(C)OC(=O)N1CCC(n2cc(NC(=O)c3cnn4cccnc34)c(C(N)=O)n2)CC1` [Example 46, tert-butyl 4-{3-carbamoyl-4-[(pyrazolo[1,5-a]pyrimidin-3-ylcarbonyl)amino]-1H-pyrazol-1-yl}piperidine-1-carboxylate], for which the IC50 was 0.67 µM. This IC50 lies about 11-fold higher than the previous one.

`Cn1cc(NC(=O)c2cnn3ccc(N[C@H]4CS(=O)(=O)CC[C@H]4N)nc23)c(C(N)=O)n1` (relative stereo) [Example 5, 5-{[cis-4-amino-1,1-dioxidotetrahydro-2H-thiopyran-3-yl]amino}-N-(3-carbamoyl-1-methyl-1H-pyrazol-4-yl)pyrazolo[1,5-a]pyrimidine-3-carboxamide trifluoroacetate] displayed an IC50 of 0.015 µM.

For the compound `CCn1cc(NC(=O)c2ccc3cnc(N[C@@H]4CCCC[C@@H]4N)nn23)c(C(N)=O)n1` [Example 62, 2-{[(1R,2S)-2-aminocyclohexyl]amino}-N-(3-carbamoyl-1-ethyl-1H-pyrazol-4-yl)pyrrolo[2,1-f][1,2,41triazine-7-carboxamide trifluoroacetate], the IC50 was 0.001 µM.

For the compound `Cn1cc(NC(=O)c2cnn3ccc(N[C@H]4CCS(=O)(=O)C[C@H]4N)nc23)c(C(N)=O)n1` (relative stereo) [Example 4, 5-{[cis-3-amino-1,1-dioxidotetrahydro-2H-thiopyran-4-yl]amino}-N-(3-carbamoyl-1-methyl-1H-pyrazol-4-yl)pyrazolo[1,5-a]pyrimidine-3-carboxamide trifluoroacetate], it took 0.005 µM to reach half-maximal inhibition (IC50).

As for `CNC(=O)c1nn(CCO)cc1NC(=O)c1ccc2cnc(N[C@@H]3CCCC[C@@H]3N)nn12` [Example 65, 2-{[(1R,2S)-2-aminocyclohexyl]amino}-N-[1-(2-hydroxyethyl)-3-(methylcarbamoyl)-1H-pyrazol-4-yl]pyrrolo[2,1-f][1,2,4]triazine-7-carboxamide trifluoroacetate], the IC50 stood at 0.063 µM.

In the case of `Cn1cc(NC(=O)c2cnn3ccc(N[C@@H]4CCOC[C@@H]4N)nc23)c(C(N)=O)n1` [Example 2, 5-{[(3R,4R)-3-aminotetrahydro-2H-pyran-4-yl]amino}-N-(3-carbamoyl-1-methyl-1H-pyrazol-4-yl)pyrazolo[1,5-a]pyrimidine-3-carboxamide trifluoroacetate], 0.0006 µM corresponded to half-maximal inhibition (IC50).

As for `NC(=O)c1ccccc1NC(=O)c1cnn2cccnc12` [Example 52, N-(2-carbamoylphenyl)pyrazolo[1,5-a]pyrimidine-3-carboxamide hydrochloride], half-maximal inhibition (IC50) was put at 7.6 µM.

Compound `CS(=O)(=O)N1CCCC(n2cc(NC(=O)c3cnn4ccc(N[C@H]5CCCC[C@H]5N)nc34)c(C(N)=O)n2)C1` (relative stereo) [Example 20, 5-{[cis-2-aminocyclohexyl]amino}-N-{3-carbamoyl-1-[1-(methylsulfonyl)piperidin-3-yl]-1H-pyrazol-4-yl}pyrazolo[1,5-a]pyrimidine-3-carboxamide trifluoroacetate] registered an IC50 of 0.004 µM.

`Cn1cc(NC(=O)c2cnn3ccc(NC4CCNC4)nc23)c(C(N)=O)n1` (stereo not drawn) [Example 14, N-(3-carbamoyl-1-methyl-1H-pyrazol-4-yl)-5-(pyrrolidin-3-ylamino)pyrazolo[1,5-a]pyrimidine-3-carboxamide hydrochloride] returned an IC50 of 0.12 µM.

Consider `NC(=O)c1nn(-c2ccncc2)cc1NC(=O)c1cnn2ccc(N3CCNCC3)nc12` [Example 34, N-(3-carbamoyl-1-pyridin-4-yl-1H-pyrazol-4-yl)-5-piperazin-1-ylpyrazolo[1,5-a]pyrimidine-3-carboxamide trifluoroacetate], for which it took 0.025 µM to reach half-maximal inhibition (IC50).

For `CN1CCC(n2cc(NC(=O)c3cnn4ccc(N[C@H]5CCCC[C@H]5N)nc34)c(C(N)=O)n2)CC1` (relative stereo) [Example 19, 5-{[cis-2-Aminocyclohexyl]amino}-N-[3-carbamoyl-1-(1-methylpiperidin-4-yl)-1H-pyrazol-4-yl]pyrazolo[1,5-a]pyrimidine-3-carboxamide], the IC50 came out at 0.002 µM. Compared with the last compound, the IC50 is about 12-fold lower.

The compound `CNS(=O)(=O)c1ccc(-n2cc(NC(=O)c3cnn4ccc(N5CCNCC5)nc34)c(C(N)=O)n2)cc1` [Example 33, N-{3-Carbamoyl-1-[4-(methylsulfamoyl)phenyl]-1H-pyrazol-4-yl}-5-piperazin-1-ylpyrazolo[1,5-a]pyrimidine-3-carboxamide] showed an IC50 of 0.004 µM.

Compound `NC(=O)c1sccc1NC(=O)c1cnn2cccnc12` [Example 50, N-(2-carbamoylthiophen-3-yl)pyrazolo[1,5-a]pyrimidine-3-carboxamide hydrochloride] came in with an IC50 of 3.5 µM. This IC50 lies about 880-fold higher than the previous one.

On to `NC(=O)c1cc(Br)ccc1NC(=O)c1cnn2cccnc12` [Example 55, N-(4-bromo-2-carbamoylphenyl)pyrazolo[1,5-a]pyrimidine-3-carboxamide hydrochloride], for which the IC50 is above 5 µM.

In turn, `CS(=O)(=O)N1CCC(n2cc(NC(=O)c3cnn4ccc(N[C@H]5CCCC[C@H]5N)nc34)c(C(N)=O)n2)CC1` (relative stereo) [Example 18, 5-{[cis-2-Aminocyclohexyl]amino}-N-{3-carbamoyl-1-[1-(methylsulfonyl)piperidin-4-yl]-1H-pyrazol-4-yl}pyrazolo[1,5-a]pyrimidine-3-carboxamide] gave an IC50 of 0.002 µM.

Compound `CCn1cc(NC(=O)c2cnn3ccc(N[C@@H]4CCCC[C@@H]4N)nc23)c(C(N)=O)n1` [Example 21, 5-{[(1R,2S)-2-Aminocyclohexyl]amino}-N-(3-carbamoyl-1-ethyl-1H-pyrazol-4-yl)pyrazolo[1,5-a]pyrimidine-3-carboxamide] showed an IC50 of 0.0006 µM.

On to `COCCn1cc(NC(=O)c2ccc3cnc(N[C@@H]4CCCC[C@@H]4N)nn23)c(C(N)=O)n1` [Example 66, 2-{[(1R,2S)-2-aminocyclohexyl]amino}-N-[3-carbamoyl-1-(2-methoxyethyl)-1H-pyrazol-4-yl]pyrrolo[2,1-f][1,2,4]triazine-7-carboxamide trifluoroacetate], for which the IC50 worked out at 0.006 µM.

`Cn1cc(NC(=O)c2ccc3cnc(NCCN)nn23)c(C(N)=O)n1` [Example 58, 2-[(2-Aminoethyl)amino]-N-(3-carbamoyl-1-methyl-1H-pyrazol-4-yl)pyrrolo[2,1-f][1,2,4]triazine-7-carboxamide] registered a concentration for half-maximal inhibition (IC50) of 0.0009 µM.

`CN1CCCC(n2cc(NC(=O)c3cnn4ccc(N[C@H]5CCCC[C@H]5N)nc34)c(C(N)=O)n2)C1` (relative stereo) [Example 10, 5-{[cis-2-aminocyclohexyl]amino}-N-[3-carbamoyl-1-(1-methylpiperidin-3-yl)-1H-pyrazol-4-yl]pyrazolo[1,5-a]pyrimidine-3-carboxamide trifluoroacetate] gave an IC50 of 0.025 µM.

As to `NC(=O)c1ccncc1NC(=O)c1cnn2cccnc12` [Example 45, N-(4-carbamoylpyridin-3-yl)pyrazolo[1,5-a]pyrimidine-3-carboxamide hydrochloride], the half-inhibitory concentration (IC50) amounted to 8.1 µM.

Regarding `CN1CCCC(Cn2cc(NC(=O)c3cnn4ccc(N[C@@H]5CCCC[C@@H]5N)nc34)c(C(N)=O)n2)C1` (stereo partly drawn) [Example 25, 5-{[(1R,2S)-2-aminocyclohexyl]amino}-N-{3-carbamoyl-1-[(1-methylpiperidin-3-yl)methyl]-1H-pyrazol-4-yl}pyrazolo[1,5-a]pyrimidine-3-carboxamide trifluoroacetate], half-maximal inhibition (IC50) required 0.002 µM.

For the compound `Cn1cc(NC(=O)c2cnn3ccc(N[C@H]4COCC[C@H]4N)nc23)c(C(N)=O)n1` [Example 1, 5-(((3R,4R)-4-Aminotetrahydro-2H-pyran-3-yl)amino)-N-(3-carbamoyl-1-methyl-1H-pyrazol-4-yl)pyrazolo[1,5-a]pyrimidine-3-carboxamide], the IC50 is 0.031 µM.

The compound `Cn1cc(NC(=O)c2cnn3ccc(NCC4CNC(=O)C4)nc23)c(C(N)=O)n1` (stereo not drawn) [Example 29, N-(3-carbamoyl-1-methyl-1H-pyrazol-4-yl)-5-{[(5-oxopyrrolidin-3-yl)methyl]amino}pyrazolo[1,5-a]pyrimidine-3-carboxamide] showed an IC50 of 0.27 µM. Compared with the last compound, the IC50 is about 8.7-fold higher.

In the case of `NC(=O)c1n[nH]cc1NC(=O)c1cnn2cccnc12` [Example 53, N-(3-carbamoyl-1H-pyrazol-4-yl)pyrazolo[1,5-a]pyrimidine-3-carboxamide trifluoroacetate], 0.7 µM corresponded to half-maximal inhibition (IC50).

As to `Cn1cc(NC(=O)c2csc3nccnc23)c(C(N)=O)n1` [Example 56, N-(3-Carbamoyl-1-methyl-1H-pyrazol-4-yl)thieno[2,3-b]pyrazine-7-carboxamide], the IC50 came to 0.069 µM. This IC50 lies about 10-fold lower than the previous one.

Turning to `CNC(=O)c1nn(C)cc1NC(=O)c1cnn2ccc(N[C@H]3CCCC[C@H]3N)nc12` (relative stereo) [Example 16, 5-{[cis-2-aminocyclohexyl]amino}-N-[1-methyl-3-(methylcarbamoyl)-1H-pyrazol-4-yl]pyrazolo[1,5-a]pyrimidine-3-carboxamide trifluoroacetate], the IC50 was 0.018 µM. Against the preceding compound, the IC50 is about 3.8-fold lower.

For `Cn1cc(NC(=O)c2cnn3ccc(N[C@@H]4CCCC(F)(F)[C@@H]4N)nc23)c(C(N)=O)n1` [Example 3, 5-{[(1R,2R)-2-amino-3,3-difluorocyclohexyl]amino}-N-(3-carbamoyl-1-methyl-1H-pyrazol-4-yl)pyrazolo[1,5-a]pyrimidine-3-carboxamide trifluoroacetate], the IC50 was 0.032 µM.

`CC(C)(C)c1cc(NC(=O)c2cnn3cccnc23)c(C(N)=O)s1` [Example 51, N-(5-tert-butyl-2-carbamoylthiophen-3-yl)pyrazolo[1,5-a]pyrimidine-3-carboxamide hydrochloride] came in with an IC50 of 8.5 µM.
